{"source": "patent US6630124B1", "about": "“Combination therapy with VIP antagonist” (Ramot-University Authority for Applied Research and …, priority 1998, dated 2003)", "key": {"[1]": {"system": "NCI-H727 non-small cell lung cancer (carcinoid)", "test": "MTS cell proliferation assay, SNH and chemotherapy", "type": "cell-based", "details": "for reduction of the IC50 of the chemotherapeutic agent by SNH: 5 μM SNH, NCI-H727; for nature of the combined effect with SNH: combination with SNH", "method": "NCI-H727 and LNCaP were grown in RPMI 1640 medium supplemented with 10% heat inactivated FCS, L-glutamine and antibiotics. HT-29 and CT-26 were grown in DMEM medium supplemented with 10% heat-inactivated FCS (fetal calf serum), L-glutamine and antibiotics. The cells were cultured in 5% CO2/95% air at […] and used during their exponential growth phase. Routinely, the cells which are adherent, were split when a subconfluent monolayer was formed. In different experiments, various concentration of FCS were used. For growth inhibition experiments, subconfluent adherent cells were washed with PBS and treated with trypsin/versene. The cells were pelleted and resuspended in medium to a final concentration of 75,000 cells/mL for NCI-H727. 50,000 cells/mL for LNCaP and HT-29 and 25000 cells/mL for CT-26. These different concentrations were used in order to avoid confluence in the wells at the end of the experiment and correspond to the different doubling times of the cell lines. On day 0, cells suspensions […] were dispensed using a multi-channel pipet into the individual wells of a 96-well tissue culture plate (Nuncion, Nunc Brand Products). […] Cells were incubated for 24 hours in a humidified atmosphere of 95% air/5% CO2 at 37° C. before treatment. On day 1, the cells were treated with different drugs and schedules and maintained under the same conditions. On day 4, viable cell number was determined by a modified MTT assay i.e., MTS non-radioactive cell proliferation assay (Promega). […] Results were finally expressed as percentage of the control, which was obtained from the samples with no drug treatment. Dose-response curves were plotted using a Sigma-Plot software and statistically analyzed using Student test. To determine the effect of the lipophilic VIP antagonist SNH on cell proliferation, cells plated in 96-well microplates for 24 hours as described, were treated with various concentrations of SNH. The peptide was diluted in PBS and […] of the peptide solution was added to each well for a final concentration of the peptide between 10^−510^−9 M. The solvent was added to the control wells. […] A dose-response curve was obtained at concentrations ranging from 2 μM-10 μM (see, FIG. 2). […] The effects of an 8 hours treatment were slightly less, showing that most of the effect is in the initial hours of exposure and much more dose than time dependent. […] For the experiments with the combinations of VIP antagonists and chemotherapeutic agents, on day 0, the cells were plated for 24 hours in medium supplemented with 5% FCS. On day 1, the peptide was added to the wells followed 1 hour later by the chemotherapeutic agents. […] The chemotherapeutic drugs were tested over 7 concentrations, covering as much as possible of the dose response curve of each individual drug. 24 hours later, the medium was exchanged and the cells incubated under the same conditions for another 48 hours. On day 4 the number of viable cells was determined by MTS assay."}, "[2]": {"system": "cell lines derived from colon cancer and prostate cancer", "test": "MTS colorimetric proliferation assay, VIP antagonist with chemotherapeutic agents (Example I)", "type": "cell-based", "details": "combination with stearyl-Nle17-neurotensis 6-11 VIP 7-28", "method": "Assays were performed with cell lines derived from colon cancer and prostate cancer. Proliferation was assessed using the MTS colorimetric assay of mitochondrial function for living cells. The VIP antagonist (stearyl-Nle17-neurotensis 6-11 VIP 7-28) was used."}, "[3]": {"system": "VIP receptor (glioblastoma cells)", "test": "cAMP in glioblastoma cells, basal and VIP-stimulated", "type": "cell-based", "details": "10 nM VIP", "description": "The effects of VIP receptor antagonists on glioblastoma cell lines were investigated."}, "MDA-MB231 xenografts": {"system": "MDA-MB231 xenografts", "test": "MDA-MB231 breast cancer xenografts in nude mice", "type": "in vivo, Balb/c nude mice", "details": "after 4 weeks; VIPhyb 10 μg/day s.c., Taxol 1.5 mg i.p. once; PBS control 1121 mm^3", "method": "To test the proliferative aspects of VIPhybrid analogs in vivo, nude mice bearing breast cancer xenografts were utilized. Female athymic Balb/c nude mice, 4-5 weeks old, were housed in a pathogen-free temperature controlled isolation room and the diet consisted of autoclaved rodent chow and autoclaved water given ad libitum. MDA-MB231 cells (1×10^7) were injected into the right flank of each mouse subcutaneously. […] PBS (100 μl) or VIPhyb analogs (10 μg/day) were injected subcutaneously adjacent to the tumor. Taxol was injected once (1.5 mg i.p.) after 2 weeks. The tumor volume (height×width×depth) was determined twice weekly by calipers and recorded."}, "MCF-7 cells": {"system": "MCF-7 cells", "test": "MTT colorimetric assay, breast cancer cells (Example 6)", "type": "cell-based", "details": "for Absorbance at 570 nM: MCF-7, MTT, 5 days", "method": "The ability of VIP receptor antagonists to alter the growth of breast cancer cells was investigated in vitro using the MTT colorimetric. The semiautomated MTT assay measures reduction of a tetrazolium compound by tumor cells to formazan. The optical density at 570 nm was determined for 8 wells at each inhibitor concentration. Seeding densities were 5×10^4 cells/well and cells were grown in 96 well plates for 5 days."}, "[4]": {"target": "T1, VIP receptor on U-87 cells (UniProt P32241 31-457, limits assumed)", "T1 construct": "whole, on cells; also called VIP1 receptor; VPAC1 receptor", "T1 sequence (looked up)": "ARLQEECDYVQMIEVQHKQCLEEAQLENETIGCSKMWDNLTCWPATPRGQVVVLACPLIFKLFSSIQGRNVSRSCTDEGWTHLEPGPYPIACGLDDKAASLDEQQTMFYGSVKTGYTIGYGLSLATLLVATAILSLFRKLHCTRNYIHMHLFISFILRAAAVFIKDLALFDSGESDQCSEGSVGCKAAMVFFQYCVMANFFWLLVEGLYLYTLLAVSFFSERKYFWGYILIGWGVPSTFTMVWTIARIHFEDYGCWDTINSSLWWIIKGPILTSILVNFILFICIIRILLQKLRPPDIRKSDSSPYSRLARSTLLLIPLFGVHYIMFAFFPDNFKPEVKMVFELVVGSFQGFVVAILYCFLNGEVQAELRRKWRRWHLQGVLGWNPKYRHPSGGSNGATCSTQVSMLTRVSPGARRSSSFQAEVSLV", "test": "competition with 125I-VIP for binding to U-87 cells"}}, "note": "Where no end group is shown, it is not given here. [ ]: non-standard residue; d: D form. The star is where a group is joined. Stearoyl = CCCCCCCCCCCCCCCCCC(=O)*; Nle = CCCC[C@H](N)C(=O)O", "data": [{"molecule": "N.N.[Cl][Pt][Cl]", "note": "[cisplatin, cis-dichlorodiammineplatinum II]", "values": [{"measurement": "reduction of the IC50 of the chemotherapeutic agent by SNH", "setting": "[1]", "result": 4, "unit": "fold"}, {"measurement": "nature of the combined effect with SNH", "setting": "[1]", "result": "synergistic"}, {"measurement": "effect of the combination with the VIP antagonist", "setting": "[2]", "result": "synergistic"}]}, {"molecule": "COc1cccc2c1C(=O)c1c(O)c3c(c(O)c1C2=O)C[C@@](O)(C(=O)CO)C[C@@H]3O[C@H]1C[C@H](N)[C@H](O)[C@H](C)O1", "note": "[doxorubicine]", "values": [{"measurement": "nature of the combined effect with SNH", "setting": "[1]", "result": "less pronounced"}, {"measurement": "effect of the combination with the VIP antagonist", "setting": "[2]", "result": "synergistic"}, {"measurement": "enhancement of the antiproliferative activity of the chemotherapeutic agent by the lipophilic VIP antagonist", "setting": "[2]", "result": "enhance the antiproliferative activity"}]}, {"molecule": "Cl.Nc1ccn([C@@H]2O[C@H](CO)[C@@H](O)C2(F)F)c(=O)n1", "note": "[gemcitabine, 2′-deoxy-2′,2′-difluorocytidine hydrochloride]", "values": [{"measurement": "nature of the combined effect with SNH", "setting": "[1]", "result": "only additive"}, {"measurement": "enhancement of the antiproliferative activity of the chemotherapeutic agent by the lipophilic VIP antagonist", "setting": "[2]", "result": "enhance the antiproliferative activity"}]}, {"molecule": "CCC1=C[C@@H]2CN(C1)Cc1c([nH]c3ccccc13)[C@@](C(=O)OC)(c1cc3c(cc1OC)N(C)[C@H]1[C@@](O)(C(=O)OC)[C@H](OC(C)=O)[C@]4(CC)C=CCN5CC[C@]31[C@@H]54)C2", "note": "[navelbine]", "values": [{"measurement": "reduction of the IC50 of the chemotherapeutic agent by SNH", "setting": "[1]", "result": "at least 2 fold"}, {"measurement": "nature of the combined effect with SNH", "setting": "[1]", "result": "synergistic"}, {"measurement": "effect of the combination with the VIP antagonist", "setting": "[2]", "result": "synergistic"}, {"measurement": "enhancement of the antiproliferative activity of the chemotherapeutic agent by the lipophilic VIP antagonist", "setting": "[2]", "result": "enhance the antiproliferative activity"}]}, {"molecule": "KPRRPYTDNYTRLRKQMAVKKYLNSILN [VIPhyb, earlier hybrid VIP antagonist: neurotensin 6-11 joined to VIP 7-28]", "values": [{"measurement": "order of peptide potency, inhibition of VIP-stimulated cAMP", "setting": "[3]", "result": "(SN)VIPhybrid>VIP hybrid >PTC4495"}, {"measurement": "tumor volume (height×width×depth)", "setting": "MDA-MB231 xenografts", "result": 508, "unit": "mm^3"}, {"measurement": "Absorbance at 570 nM", "setting": "MCF-7 cells; 1 μM", "result": ".417 ± .064"}, {"measurement": "Absorbance at 570 nM", "setting": "MCF-7 cells; 3 μM", "result": ".353 ± .048"}, {"measurement": "Absorbance at 570 nM", "setting": "MCF-7 cells; 10 μM", "result": ".317 ± .030"}, {"measurement": "inhibition of MCF-7 proliferation", "setting": "MCF-7 cells; 10 μM, MTT assay", "result": "significantly inhibited"}]}, {"molecule": "Stearoyl-KPRRPYTDNYTRLRKQ[Nle]AVKKYLNSILN-NH2 (SMILES CCCCCCCCCCCCCCCCCC(=O)N[C@@H](CCCCN)C(=O)N1CCC[C@H]1C(=O)N[C@@H](CCCNC(=N)N)C(=O)N[C@@H](CCCNC(=N)N)C(=O)N1CCC[C@H]1C(=O)N[C@@H](Cc1ccc(O)cc1)C(=O)N[C@H](C(=O)N[C@@H](CC(=O)O)C(=O)N[C@@H](CC(N)=O)C(=O)N[C@@H](Cc1ccc(O)cc1)C(=O)N[C@H](C(=O)N[C@@H](CCCNC(=N)N)C(=O)N[C@@H](CC(C)C)C(=O)N[C@@H](CCCNC(=N)N)C(=O)N[C@@H](CCCCN)C(=O)N[C@@H](CCC(N)=O)C(=O)N[C@@H](CCCC)C(=O)N[C@@H](C)C(=O)N[C@H](C(=O)N[C@@H](CCCCN)C(=O)N[C@@H](CCCCN)C(=O)N[C@@H](Cc1ccc(O)cc1)C(=O)N[C@@H](CC(C)C)C(=O)N[C@@H](CC(N)=O)C(=O)N[C@@H](CO)C(=O)N[C@H](C(=O)N[C@@H](CC(C)C)C(=O)N[C@@H](CC(N)=O)C(N)=O)[C@@H](C)CC)C(C)C)[C@@H](C)O)[C@@H](C)O, Synthetic lipophilic VIP antagonist; also called (SN)VIPhybrid; SNVIPhybrid)", "note": "[(N-Stearyl-Norleucine17) VIPhybrid]", "values": [{"measurement": "IC50", "setting": "[4]", "result": 500, "unit": "nM"}]}, {"molecule": "KPRRPYTDNYTRLRKQMAVKKYLNSILN (ends and bridges not checked)", "note": "[Neurotensis 6-11 VIP7-28 (VIPhybrid)]", "values": [{"measurement": "IC50", "setting": "[4]", "result": 70, "unit": "nM"}]}]}
